The target in this assay is B-Raf (V600E)-kinase (Homo sapiens (Human), UniProt P15056, V600E). Briefly: Kinase test B-Raf (V600E). The format is biochemical. To be noted: 1 h preincubation, 250 μM ATP.

Results on one compound are retold here after patent US9290507B2, “B-RAF kinase inhibitors” (Boehringer Ingelheim International GmbH, priority 2010, dated 2016).

B-Raf (V600E)-kinase, sequence (P15056 whole entry V600E): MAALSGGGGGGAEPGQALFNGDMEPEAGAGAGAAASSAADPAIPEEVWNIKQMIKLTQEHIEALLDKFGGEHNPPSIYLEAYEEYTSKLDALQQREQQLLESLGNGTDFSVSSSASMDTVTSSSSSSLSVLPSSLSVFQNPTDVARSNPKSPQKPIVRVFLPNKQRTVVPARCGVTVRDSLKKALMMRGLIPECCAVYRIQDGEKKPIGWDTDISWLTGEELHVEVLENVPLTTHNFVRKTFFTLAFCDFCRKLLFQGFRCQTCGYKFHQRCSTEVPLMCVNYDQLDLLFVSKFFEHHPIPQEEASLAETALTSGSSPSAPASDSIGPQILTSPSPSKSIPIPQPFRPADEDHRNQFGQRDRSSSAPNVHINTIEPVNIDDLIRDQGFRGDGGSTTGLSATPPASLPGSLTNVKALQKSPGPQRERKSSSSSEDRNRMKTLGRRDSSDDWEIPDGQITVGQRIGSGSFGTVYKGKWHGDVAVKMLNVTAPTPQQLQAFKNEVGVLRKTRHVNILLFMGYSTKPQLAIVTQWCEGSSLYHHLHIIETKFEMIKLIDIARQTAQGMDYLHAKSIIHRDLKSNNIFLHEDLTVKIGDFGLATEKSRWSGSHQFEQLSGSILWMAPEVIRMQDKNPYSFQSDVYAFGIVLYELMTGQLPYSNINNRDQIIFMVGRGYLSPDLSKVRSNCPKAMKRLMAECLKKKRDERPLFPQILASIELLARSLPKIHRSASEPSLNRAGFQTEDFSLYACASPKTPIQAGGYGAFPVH

Broadly, the IC50 is the midpoint of a concentration-inhibition curve. The low end stands for greater potency, the high end for weaker potency. As for `Cc1ccc(NC(=O)c2cc(CNCCN(C)C)c(C(C)(C)C)o2)cc1-n1cc(-c2cncc(N3CCOCC3)c2)nn1` [II-45], the IC50 stood at 10 nM.
